Some test systems named below: SNB-19 CNS; BT-549 breast; SF-539 CNS; SK-MEL-2 melanoma; TK-10 renal; A549 NSCLC; LOX IMVI melanoma; HL-60(TB) leukemia; HOP-92 NSCLC; MALME-3M melanoma.
What all share (test): NCI tumour cell line growth inhibition, 48 h

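1) Cells in 96-well plates. 2) Compound, 48 h, 5 concentrations. 3) Linear interpolation between surrounding doses. 4) Unreached endpoint = highest concentration. Abbreviation: GI50, concentration required for 50% inhibition of growth. Definition used: TGI = concentration required for complete inhibition of growth.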

Regarding `COc1ccc([I+]c2ccccc2)cc1`, the GI50 with SNB-19 CNS is 11.3 µM; in the assay on BT-549 breast it was 4.12 µM; with SF-539 CNS it was 6.77 µM; in the assay with SK-MEL-2 melanoma it was 51.4 µM; with TK-10 renal, 17.4 µM; in the assay on A549 NSCLC, 4.38 µM. Moreover, the GI50 in the assay on LOX IMVI melanoma is 3.47 µM; in the assay with HL-60(TB) leukemia, 5.22 µM; in the assay with HOP-92 NSCLC, 6.55 µM; in the assay with MALME-3M melanoma, 7.8 µM. Also, the TGI in the assay on SNB-19 CNS was > 100 µM; in the assay with BT-549 breast, > 78.8 µM; with SF-539 CNS it was > 100 µM; in the assay with SK-MEL-2 melanoma, > 100 µM; in the assay on TK-10 renal it was > 100 µM; in the assay with A549 NSCLC, > 100 µM. For the same molecule, the TGI in the assay on LOX IMVI melanoma is > 100 µM; in the assay with HL-60(TB) leukemia it was > 95.1 µM; in the assay with HOP-92 NSCLC, 81.9 µM; with MALME-3M melanoma, > 100 µM.
Regarding `Cc1ccc(C(=O)/C(=C\c2ccc([N+](=O)[O-])cc2)S(=O)Cc2ccc(F)cc2)cc1` (stereo not given), the GI50 with SNB-19 CNS is 1.75 µM; in the assay with BT-549 breast it was 1.52 µM; with SF-539 CNS it was 1.72 µM; in the assay with SK-MEL-2 melanoma, 2.1 µM; in the assay with TK-10 renal it was 1.72 µM; in the assay on A549 NSCLC, 2.86 µM. The GI50 was 1.46 µM in the assay with LOX IMVI melanoma, 1.67 µM with HL-60(TB) leukemia, 1.93 µM in the assay with HOP-92 NSCLC and 1.57 µM in the assay on MALME-3M melanoma. Moreover, the TGI was 3.33 µM in the assay with SNB-19 CNS; 2.88 µM in the assay on BT-549 breast; 3.29 µM in the assay with SF-539 CNS; 5.2 µM with SK-MEL-2 melanoma; 3.28 µM in the assay with TK-10 renal; 8.8 µM in the assay on A549 NSCLC. For the same molecule, the TGI in the assay on LOX IMVI melanoma amounted to 2.95 µM; in the assay with HL-60(TB) leukemia it was 5.02 µM; with HOP-92 NSCLC, 3.87 µM; in the assay with MALME-3M melanoma, 3.33 µM.

Values taken from PubChem BioAssay (NCI).
